We go through five substances from PMC4459106 (Scientific Reports, 2015).

The Km is the substrate concentration at which the rate is half of its maximum.

The target in one assay is T1, ppERK2 (Rattus norvegicus, UniProt P63086).
T1 construct: made in house
Nature of the assay: Fluorescence-based kinase assay, phosphorylation of ERK-sensor-D1 by ppERK2. In kind it is biochemical, rat (rat ERK2 numbering used throughout). The note with it: for Km: 2 nM ppERK2, 25 mM HEPES pH 7.5, 10 mM MgCl2, 28 °C, fluorescence 360/492 nm; for Vmax: 2 nM ppERK2, 25 mM HEPES pH 7.5, 28 °C. On the procedure:
The ERK-sensor-D1 peptide[57] […] The reaction was initiated after 1 hour of pre-incubation at room temperature by adding 10 μL of 5 mM Mg^2+/ATP to 90 μL of assay mixture and the fluorescence intensity was recorded at each time point for a total of 6 minutes on a Fluorolog fluorimeter (Horiba Jobin Yvon) in quartz cuvettes (Starna Cells) with a 10 mm path length and a reaction volume of 100 μL. The sample was excited at 360 nm and fluorescence was monitored at 492 nm using excitation and emission slit widths of 3 nm. The change in fluorescence was related to the progression of the reaction using a previously determined conversion factor[58].

The test system of the next assay is ERK2. The note with it: cited from earlier work. An excerpt:
While the biological relevance of this finding is debatable, care should be taken while analyzing in vitro data from studies that employ F-site and D-site containing ligands simultaneously.

The target of assay [1] is T2, ppERK2 (D-recruitment site, DRS) (Rattus norvegicus, UniProt P63086).
T2 construct: made in house
Nature of the assay: NMR 15N,1H TROSY titration of ppERK2 with peptide ligand (CSPs; DRS affinity by two-site fit). In kind it is binding, rat (rat ERK2 numbering used throughout). The note with it: 130 μM ppERK2, 50 mM HEPES pH 6.8, KIM15-31 up to 992.0 μM. On the procedure: Spectral perturbations on ppERK2 were assessed from ^15N, ^1H TROSY experiments at 600 MHz and 25.0 °C using 1024 and 128 complex points and sweep-widths of 15 and 33 ppm in the ^1H and ^15N dimensions, respectively. […] A 130 μM sample of ppERK2 in a buffer containing 50 mM HEPES pH 6.8, 150 mM NaCl, 200 μM EDTA and 2 mM DTT was titrated with the following amounts of KIM15-31: 49.2, 99,8, 149.0, 296.2, 450.6, 992.0 μM.

T1 sequence (P63086 whole entry): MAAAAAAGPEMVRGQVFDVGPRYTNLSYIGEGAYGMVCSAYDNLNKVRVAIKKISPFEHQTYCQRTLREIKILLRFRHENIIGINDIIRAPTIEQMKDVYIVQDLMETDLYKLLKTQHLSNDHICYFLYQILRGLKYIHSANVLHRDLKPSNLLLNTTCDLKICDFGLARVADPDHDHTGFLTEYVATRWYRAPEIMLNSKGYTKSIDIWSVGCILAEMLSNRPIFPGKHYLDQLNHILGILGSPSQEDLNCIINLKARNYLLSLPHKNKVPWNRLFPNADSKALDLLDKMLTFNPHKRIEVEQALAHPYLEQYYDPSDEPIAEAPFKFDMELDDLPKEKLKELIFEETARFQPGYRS
T2 sequence (P63086 whole entry): as above

With “QRKTLQRRNLKGLNLNL-X3-TGPLSPC-Sox-PF [ERK-sensor-D1]”, the results for the Michaelis-Menten constant (Km) on ppERK2 (absence of Elk387-399) and at ppERK2 (presence of 100 μM Elk387-399) were 10.1 ± 0.8 µM and 22.7 ± 2.8 µM, respectively. In addition, the Vmax is given as 21.4 ± 0.5 nM phosphate/second at ppERK2 (absence of Elk387-399) and 23.4 ± 1.1 nM phosphate/second on ppERK2 (presence of 100 μM Elk387-399).
“Ets-1: transcription factor possessing neither a canonical D-site nor F-site”: the “binding to ERK2” value with ERK2 is given as “efficiently bind ERK2”.
For the substance “KIM15-31: DRS specific ligand (TLSLGAAMTQPPPEKTP; UniProt P35236 15-31, looked up, fragment)”, the “CSPs on titration of ppERK2 with KIM15-31” value in assay [1] is “the only significant CSPs are seen at the DRS and no significant long-range perturbations including at the FRS, are noted”.
On to “PEA-15: anti-apoptotic small adaptor protein without canonical D-site or F-site sequences”, for which the “binding to ERK2” value in the assay on ERK2 is reported as “efficiently bind ERK2”.
As for c-Fos: F-site containing c-Fos, in the assay with ERK2 (F-site containing c-Fos, DRS-mutant vs native ERK2), the “increase in apparent KD of interaction with ppERK2 on DRS mutation” value is listed as 2-3 -fold.
